Experimental data from paper doi:10.64898/2025.12.30.696991 (bioRxiv, 2026).
Read-outs that look alike come from different tables or passages of the source.

Columns and labels:
[1] = system: planktonic MDR S. Typhimurium (ATCC 700408); experiment: Direct effect on planktonic MDR bacteria (optical density 600 nm); assay type: cell-based, Salmonella enterica serovar Typhimurium; settings: Salmonella enterica, Table 2, OD 600 nm
Protocol: (§1) A single colony of susceptible or MDR bacteria was inoculated into nutrient broth and incubated overnight at 37°C in an orbital shaker set at 200 rpm. The overnight culture was sub-cultured (1:100) in fresh medium to obtain log-phase bacterial growth after an additional 3 hr incubation at 37°C and further adjusted to obtain a bacterial stock solution with an absorbance value of 0.6 at 600 nm, equivalent to a concentration of 3×10^8 CFU/mL. The bacterial stock was diluted with nutrient broth to obtain 3×10^4 CFU/well in a 96 well plate. Next, 10 μL of each analog were added to yield a total volume of 100 μL /well with a final concentration of 20 μM. Drug-free and bacteria-free wells were used as controls. The plate was incubated at 37°C for 22 hr. Percent bacterial viability was determined using optical density measurements at 600 nm, subtracting out bacteria free absorbance (background) and normalizing to a DMSO vehicle control. Bacterial viability was plotted against increasing drug concentration to obtain the 50% minimum inhibitory concentration (MIC50), defined as the drug concentration resulting in 50% bacterial viability.

[2] = system: intracellular susceptible S. Typhimurium (ATCC 700720); experiment: Intracellular gentamicin protection assay, susceptible S. Typhimurium in RAW 264.7 macrophages; assay type: cell-based, Salmonella enterica serovar Typhimurium; settings: for selectivity (selectivity indices): LC50 / IC50, strain not specified; for IC50: Salmonella enterica; for Selectivity: LC50 / IC50, susceptible S. Typhimurium
Protocol: (§2) RAW 264.7 cells were seeded at 3×10^4 cells/well in a 96-well plate and maintained at 37°C for 20 hours. A single colony of susceptible or MDR S. Typhimurium was inoculated and cultured overnight in nutrient broth and diluted to obtain a log-phase culture stock with an adjusted optical density (OD600) of 0.6, equivalent to a concentration of 3×10^8 CFU/mL (determined by a prior colony forming units (CFU) assay). The bacterial stock solution was resuspended in antibiotic-free DMEM supplemented with 2% FBS and further diluted to obtain a bacterial concentration of 3×10^6 CFU/mL. Cell media was aspirated and replaced with 100 μL of bacteria culture in DMEM resulting in a multiplicity of infection (MOI) of 10. The cells underwent infection for two hours or 30 minutes at 37°C with susceptible or MDR bacteria, respectively. This differential infection incubation period was based on strain-specific infectivity potential. […] Media was aspirated from the wells and replaced with DMEM (2% FBS) containing 100 μg/mL gentamicin for one hour at 37°C to eliminate extracellular bacteria. Following this step, cells were washed once with media and treated for 22 hours with analogs at varying concentrations (0.1 – 5 μM) in DMEM (2% FBS, no pen/strep) containing 10 μg/mL gentamicin to suppress extracellular bacterial growth. AR-12 treated, uninfected, and DMSO-vehicle treated cells were included as controls. Post treatment, cells were washed with PBS and lysed with 0.1% Triton-X100, a concentration sufficient to disrupt host cells while preserving bacterial integrity. The lysates containing intracellular bacteria were serially diluted and enumerated by using drop-plate assay as described previously.([27]) Agar plates were incubated overnight at 37°C before CFU from each dilution were counted.

[3] = system: planktonic susceptible S. Typhimurium (ATCC 700720); experiment: Direct effect on planktonic susceptible bacteria (optical density 600 nm); assay type: cell-based, Salmonella enterica serovar Typhimurium; settings: Salmonella enterica
Protocol: as §1

in vitro = assay type: cell-based
Protocol: Cell proliferation and viability in the presence of the analogs was tested in the macrophage cell line RAW 264.7 using a 3-(4,5-dimethylthiazol-2-yl)-2,5-diphenyl-2H-tetrazolium bromide (MTT) assay. Cells were seeded at 3×10^4 cells/well in 96 well plates in DMEM (10% FBS, 1% pen/strep). […] DMSO vehicle was utilized as a control, as all the drugs were reconstituted from DMSO stocks. After 24 hr treatment, media was replaced with 100 μL of 0.6 mg/mL MTT solution and the cells were incubated at 37°C until formazan crystals formed. The MTT solution was then replaced with 100 μL of isopropanol, to dissolve the formazan crystals. Cell viability was determined by measuring absorbance at 560 nm of drug treated cells normalized to DMSO vehicle controls. The absorbance at 670 nm was used as a background correction. Cell viability was plotted against increasing drug concentration to obtain the 50% lethal concentration (LC50), defined as the drug concentration resulting in 50% cell viability.

[4] = system: intracellular MDR S. Typhimurium (ATCC 700408); experiment: Intracellular gentamicin protection assay, MDR S. Typhimurium in RAW 264.7 macrophages; assay type: cell-based, Salmonella enterica serovar Typhimurium; settings: for IC50: Salmonella enterica, RAW264.7, Table 2, intracellular burden 50% in RAW 264.7; for MDR Selectivity: Table 2, LC50 / IC50; for difference of IC50 between susceptible and MDR S. Typhimurium: defined as 2-fold difference MDR IC50 / Susc IC50
Protocol: as §2
Supplemental Figure 2: Evaluating lead compound efficacy against MDR S. Typhimurium. A) Schematic illustrating gentamicin protection assay. Day 0 RAW 264.7 macrophages are seeded into 96-well plate and STM culture is inoculated. Day 1: RAW 264.7 cells are infected with STM at an MOI of 10 for 30 min, washed, then treated with gentamicin for 1hr to remove extracellular bacteria. AR-12 analogs added to infected cells for 22hr incubation. Day 2: RAWs are washed, lysed, diluted and then dropped onto agar plates. Day 3: colony forming units (CFUs) counted. B) Dose effect curves of intracellular MDR S. Typhimurium viability from RAW 264.7 macrophages after 22hr treatment with hit compounds. CFUs normalized to untreated controls. Parental compound AR-12 included for comparison.

[5] = RAW264.7, 22 h, Table 1, concentration at which intracellular susceptible S. Typhimurium burden is 50% in RAW 264.7 macrophages, 22 h treatment, read-out: IC50
[6] = RAW264.7, Table 2, intracellular burden 50% in RAW 264.7, read-out: Susc. IC50
[7] = Table 1, planktonic susceptible S. Typhimurium viability 50% by optical density, 22 hr, read-out: MIC50
[8] = Table 2, planktonic Salmonella, OD 600 nm, read-out: Susc. MIC50

SMILES | MIC50 [1] | selectivity (selectivity indices) [2] | IC50 [2, 5] | IC50 [2, 6] | Selectivity ([2]; Table 1) | MIC50 [3, 7] | MIC50 [3, 8] | CC50 at 24 h (in vitro; Table 1, RAW 264.7 viability reduced by 50%, MTT assay, 24 hr, 1–100 μM, read-out: LC50) | CC50 at 24 h (in vitro; Table 2, RAW 264.7 viability 50%, colorimetric assay, extended up to 500 μM, read-out: LC50) | IC50 [4] | MDR Selectivity [4] | CC50 at 24 h (in vitro; mouse, LC50) | difference of IC50 between susceptible and MDR S. Typhimurium [4] | improvement in selectivity over AR-12 [2]
NCC(=O)Nc1ccc(-n2nc(C(F)(F)F)cc2-c2ccc3c(ccc4ccccc43)c2)cc1 [AR-12, reference compound] | > 20 µM | around 20 | 420 nM | 400 nM | 19.8 | > 20 µM | > 20 µM | 8000 nM | 8300 nM | 340 nM | 24.4 | – | – | –
Fc1cccc(CN2CCC(Nc3ccc(-n4nc(C(F)(F)F)cc4C4CCCCC4)cc3)CC2)c1 [Compound 322] | > 20 µM | – | 140 nM | 140 nM | 324 | > 20 µM | > 20 µM | – | – | 120 nM | 372 | 43700 nM | – | –
N#Cc1ccc(CN2CCC(Nc3ccc(-n4nc(C(F)(F)F)cc4C4CCCCC4)cc3)CC2)cc1 [Compound 323] | > 20 µM | – | 100 nM | 100 nM | 333 | > 20 µM | > 20 µM | – | – | 200 nM | 160 | 32000 nM | strongly different | –
NC1CCN(c2ccc(-n3nc(C(F)(F)F)cc3C3CCCCC3)cc2)CC1 [Compound 324] | > 20 µM | – | 80 nM | 80 nM | 244 | > 20 µM | > 20 µM | – | – | 160 nM | 118 | 18800 nM | strongly different | –
NCC(=O)Nc1ccc(-n2nc(C(F)(F)F)cc2C2CCCCC2)cc1 [Compound 341] | > 20 µM | – | 80 nM | 80 nM | 398 | > 20 µM | > 20 µM | – | – | 100 nM | 318 | 31800 nM | – | –
FC(F)(F)c1cc(C2CCCCC2)n(-c2ccc(N3CCC(NCc4ccccc4)C3)cc2)n1 (centres unmarked) [Compound 364] | > 20 µM | – | 130 nM | 130 nM | 269 | > 20 µM | > 20 µM | – | – | 120 nM | 291 | 35000 nM | – | –
N#Cc1ccc(CNC2CCN(c3ccc(-n4nc(C(F)(F)F)cc4C4CCCCC4)cc3)C2)cc1 (centres unmarked) [Compound 365] | > 20 µM | – | 150 nM | 150 nM | 285 | > 20 µM | > 20 µM | – | – | 370 nM | 115 | 42700 nM | strongly different | –
FC(F)(F)c1cc(C2CCCCC2)n(-c2ccc(OC3CCNCC3)cc2)n1 [Compound 370] | > 20 µM | – | 80 nM | 80 nM | 229 | > 20 µM | > 20 µM | – | – | 60 nM | 269 | 17200 nM | – | –
FC(F)(F)c1cc(C2CCCCC2)n(-c2ccc(OC3CCN(Cc4ccccc4)CC3)cc2)n1 [Compound 371] | > 20 µM | – | 140 nM | 140 nM | 644 | > 20 µM | > 20 µM | – | – | 110 nM | 790 | 90200 nM | – | –
Fc1cccc(CN2CCC(Oc3ccc(-n4nc(C(F)(F)F)cc4C4CCCCC4)cc3)CC2)c1 [Compound 372] | > 20 µM | > 2000 | 130 nM | ~130 nM | >769 | > 20 µM | > 20 µM | – | – | 170 nM | – | – | – | –
N#Cc1ccc(CN2CCC(Oc3ccc(-n4nc(C(F)(F)F)cc4C4CCCCC4)cc3)CC2)cc1 [Compound 373] | > 20 µM | > 2000 | 130 nM | ~130 nM | >769 | > 20 µM | > 20 µM | – | – | ~130 nM | – | – | – | –
FC(F)(F)c1cc(C2CCCCC2)n(-c2ccc(OC3CCN(Cc4ccccc4)C3)cc2)n1 (centres unmarked) [Compound 378] | > 20 µM | – | 310 nM | 310 nM | >322 | > 20 µM | > 20 µM | – | – | 180 nM | – | – | – | approximately 100 fold
